Data published in patent US12357631B2 (priority 2018, dated 2025).

Target: PB2 (Influenza A virus, UniProt P03428)
Experiment: biochemical
Format: binding

Sequence of PB2 (P03428 whole entry, looked up): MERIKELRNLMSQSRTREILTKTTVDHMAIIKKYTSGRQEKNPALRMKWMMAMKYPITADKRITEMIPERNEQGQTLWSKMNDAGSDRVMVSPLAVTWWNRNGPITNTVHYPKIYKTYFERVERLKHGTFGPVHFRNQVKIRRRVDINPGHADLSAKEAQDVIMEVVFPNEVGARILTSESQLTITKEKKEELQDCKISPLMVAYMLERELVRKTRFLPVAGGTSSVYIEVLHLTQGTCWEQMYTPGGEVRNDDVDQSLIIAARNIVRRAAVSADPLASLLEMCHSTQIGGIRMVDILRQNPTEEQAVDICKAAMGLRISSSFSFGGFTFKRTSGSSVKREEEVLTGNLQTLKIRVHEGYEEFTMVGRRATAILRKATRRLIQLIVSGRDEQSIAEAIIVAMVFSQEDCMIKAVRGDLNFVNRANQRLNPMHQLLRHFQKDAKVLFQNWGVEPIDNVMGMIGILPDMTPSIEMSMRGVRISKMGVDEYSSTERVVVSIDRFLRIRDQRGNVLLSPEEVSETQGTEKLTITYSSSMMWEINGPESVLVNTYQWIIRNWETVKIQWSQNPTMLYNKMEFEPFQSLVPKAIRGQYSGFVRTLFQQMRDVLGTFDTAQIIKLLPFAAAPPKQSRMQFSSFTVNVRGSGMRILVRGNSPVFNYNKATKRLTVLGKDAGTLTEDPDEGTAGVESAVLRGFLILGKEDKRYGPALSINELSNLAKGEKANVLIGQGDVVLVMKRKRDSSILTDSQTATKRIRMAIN

Row | Compound | EC50 [µM]
1 | O=C(N[C@@H]1CCC[C@H](Nc2nc(-c3c[nH]c4ncc(F)cc34)ncc2F)C1)c1cc(CCCOCCOCCO)ccn1 [Compound A59] | < 5
2 | COc1ccc(CNC(=O)OCc2ccnc(C(=O)N[C@H]3CCC[C@@H](Nc4nc(-c5c[nH]c6ncc(F)cc56)ncc4F)C3)c2)cc1 [Compound A73] | > 100
3 | CCOc1ccccc1OCCCCCN(C)C(=O)N[C@@H]1CCC[C@H](Nc2nc(-c3c[nH]c4ncc(F)cc34)ncc2F)C1 [Compound A216] | > 100
4 | CCCCCCCCCCCNC(=O)N[C@@H]1CCC[C@H](Nc2nc(-c3c[nH]c4ncc(F)cc34)ncc2F)C1 [Compound A174] | 50 to 100
5 | CCOCCOCCCCCN(CC(=O)O)C(=O)N[C@@H]1CCC[C@H](Nc2nc(-c3c[nH]c4ncc(F)cc34)ncc2F)C1 [Compound A202] | 5 to 25
6 | CCOCCOCCCCCN(C(=O)N[C@@H]1CCC[C@H](Nc2nc(-c3c[nH]c4ncc(Cl)cc34)ncc2F)C1)C(C)C [Compound A248] | > 100
7 | CCNC(=O)CNC(=O)OCc1ccnc(C(=O)N[C@H]2CCC[C@@H](Nc3nc(-c4c[nH]c5ncc(F)cc45)ncc3F)C2)c1 [Compound A111] | 5 to 25
8 | CCOCCOCCOCCNC(=O)N(CCc1ccccc1)[C@@H]1CCC[C@H](Nc2nc(-c3c[nH]c4ncc(F)cc34)ncc2F)C1 [Compound B2] | 50 to 100
9 | O=C(NCC1COCCN1)OCc1ccnc(C(=O)N[C@H]2CCC[C@@H](Nc3nc(-c4c[nH]c5ncc(F)cc45)ncc3F)C2)c1 (some centres unmarked) [Compound A120] | 5 to 25
10 | CCOCCOCCOCCS(=O)(=O)N[C@@H]1CCC[C@H](Nc2nc(-c3c[nH]c4ncc(F)cc34)ncc2F)C1 [Compound A266] | 5 to 25
11 | O=C(NCCc1ccccc1)OCc1ccnc(C(=O)N[C@@H]2CCC[C@H](Nc3nc(-c4c[nH]c5ncc(F)cc45)ncc3F)C2)c1 [Compound A94] | > 100
12 | O=C(N[C@H]1CCC[C@@H](Nc2nc(-c3c[nH]c4ncc(F)cc34)ncc2F)C1)c1cncc(F)c1 [Compound A57] | 5 to 25
13 | CCOCCOCc1cccc(CN(C)C(=O)N[C@@H]2CCC[C@H](Nc3nc(-c4c[nH]c5ncc(F)cc45)ncc3F)C2)c1 [Compound A204] | > 100
14 | CCOCCOCCCCCN(C(=O)N[C@H]1CCC[C@@H](Nc2nc(-c3c[nH]c4ncc(F)cc34)ncc2Cl)C1)C(C)C [Compound A250] | > 100
15 | O=C(NCc1ccccc1F)OCc1ccnc(C(=O)N[C@H]2CCC[C@@H](Nc3nc(-c4c[nH]c5ncc(F)cc45)ncc3F)C2)c1 [Compound A124] | > 100
16 | CCCCCOCCOCC(=O)N[C@@H]1CCC[C@H](Nc2nc(-c3c[nH]c4ncc(F)cc34)ncc2F)C1 [Compound A272] | 50 to 100
17 | CCOc1cccc(-c2ccnc(C(=O)N[C@H]3CCC[C@@H](Nc4nc(-c5c[nH]c6ncc(F)cc56)ncc4F)C3)c2)c1 [Compound A52] | > 100
18 | CCOc1ccc(CNC(=O)OCc2ccnc(C(=O)N[C@H]3CCC[C@@H](Nc4nc(-c5c[nH]c6ncc(F)cc56)ncc4F)C3)c2)cc1 [Compound A112] | > 100
19 | CC(C)[C@@H](NC(=O)OCc1ccnc(C(=O)N[C@@H]2CCC[C@H](Nc3nc(-c4c[nH]c5ncc(F)cc45)ncc3F)C2)c1)C(=O)O [Compound A142] | < 5
20 | O=COCCOCCNC(=O)OCc1ccnc(C(=O)N[C@H]2CCC[C@@H](Nc3nc(-c4c[nH]c5ncc(F)cc45)ncc3F)C2)c1 [Compound A115] | < 5
21 | COCCOCCCCCCN(C)C(=O)N[C@H]1CCC[C@@H](Nc2nc(-c3c[nH]c4ncc(F)cc34)ncc2F)C1 [Compound A244] | > 100

Row | Compound | EC50 [µM]
22 | CCCCCOCCCCCN(C)C(=O)N[C@@H]1CCC[C@H](Nc2nc(-c3c[nH]c4ncc(F)cc34)ncc2F)C1 [Compound A201] | > 100
23 | CCOCCOc1cccc(CCN(C)C(=O)N[C@@H]2CCC[C@H](Nc3nc(-c4c[nH]c5ncc(F)cc45)ncc3F)C2)c1 [Compound A186] | > 100
24 | CCOCCOCCCCCN(C)C(=O)N1CCC(CNc2nc(-c3c[nH]c4ncc(F)cc34)ncc2F)C1 (centres unmarked) [Compound C8] | > 100
25 | CCCCCCCCCCC(=O)N[C@@H]1CCC[C@H](Nc2nc(-c3c[nH]c4ncc(F)cc34)ncc2F)C1 [Compound A271] | 50 to 100
26 | CCCCCOCCCc1ccnc(C(=O)N[C@@H]2CCC[C@H](Nc3nc(-c4c[nH]c5ncc(F)cc45)ncc3F)C2)c1 [Compound A27] | > 100
27 | CCCOCCCCCCCN(C)C(=O)N[C@@H]1CCC[C@H](Nc2nc(-c3c[nH]c4ncc(F)cc34)ncc2F)C1 [Compound A199] | > 100
28 | O=C(NCc1cccc(Oc2ccccc2)c1)OCc1ccnc(C(=O)N[C@H]2CCC[C@@H](Nc3nc(-c4c[nH]c5ncc(F)cc45)ncc3F)C2)c1 [Compound A119] | > 100
29 | O=C(NCc1ccc(Oc2ccccc2)cc1)OCc1ccnc(C(=O)N[C@H]2CCC[C@@H](Nc3nc(-c4c[nH]c5ncc(F)cc45)ncc3F)C2)c1 [Compound A102] | > 100
30 | COCc1cccc(-c2ccnc(C(=O)N[C@@H]3CCC[C@H](Nc4nc(-c5c[nH]c6ncc(F)cc56)ncc4F)C3)c2)c1 [Compound A61] | 25 to 50
31 | CCOCCOCCCCCN(CC(=O)N(C)C)C(=O)N[C@@H]1CCC[C@H](Nc2nc(-c3c[nH]c4ncc(F)cc34)ncc2F)C1 [Compound B7] | 25 to 50
32 | CCOCCOCCOCCN(C(=O)N(C)C)[C@@H]1CCC[C@H](Nc2nc(-c3c[nH]c4ncc(F)cc34)ncc2F)C1 [Compound B6] | > 100
33 | O=C(N[C@H]1CCC[C@@H](Nc2nc(-c3c[nH]c4ncc(F)cc34)ncc2F)C1)c1cncc2ccccc12 [Compound A65] | 25 to 50
34 | O=C(N[C@@H]1CCC[C@H](Nc2nc(-c3c[nH]c4ncc(F)cc34)ncc2F)C1)c1cc(CCCOCCOCc2ccc(F)cc2)ccn1 [Compound A36] | > 100
35 | CCCCc1ccc(C(=O)N[C@@H]2CCC[C@H](Nc3nc(-c4c[nH]c5ncc(F)cc45)ncc3F)C2)nc1 [Compound A58] | 50 to 100
36 | CCNC(=O)C(NC(=O)OCc1ccnc(C(=O)N[C@H]2CCC[C@@H](Nc3nc(-c4c[nH]c5ncc(F)cc45)ncc3F)C2)c1)C(C)(C)C (some centres unmarked) [Compound A148] | 50 to 100
37 | CC(C)NCCNC(=O)OCc1ccnc(C(=O)N[C@H]2CCC[C@@H](Nc3nc(-c4c[nH]c5ncc(F)cc45)ncc3F)C2)c1 [Compound A116] | 5 to 25
38 | NCCOCCOCCOCC(=O)N1CCC[C@H](Nc2nc(-c3c[nH]c4ncc(F)cc34)ncc2F)C1 [Compound C4] | 5 to 25
39 | O=C(N[C@H]1CCC[C@@H](Nc2nc(-c3c[nH]c4ncc(F)cc34)ncc2F)C1)N1CCCC(CCCOCCO)C1 (some centres unmarked) [Compound A10] | 5 to 25
40 | CCC(CC)OCCOCCCCCN(C)C(=O)N[C@H]1CCC[C@@H](Nc2nc(-c3c[nH]c4ncc(F)cc34)ncc2F)C1 [Compound A246] | > 100
41 | Cc1cccc(CNC(=O)OCc2ccnc(C(=O)N[C@H]3CCC[C@@H](Nc4nc(-c5c[nH]c6ncc(F)cc56)ncc4F)C3)c2)c1 [Compound A127] | > 100
42 | CCCOCCCCCCCN(C)C(=O)N[C@@H]1CCC[C@H](Nc2nc(-c3c[nH]c4ncc(F)cc34)ncc2F)C1 [Compound A236] | 50 to 100

Row | Compound | EC50 [µM]
43 | O=C(N[C@H]1CCC[C@@H](Nc2nc(-c3c[nH]c4ncc(F)cc34)ncc2F)C1)c1cc(COCCCCCOCc2ccncc2)ccn1 [Compound A103] | > 100
44 | CCOc1ccc(C(C)NC(=O)OCc2ccnc(C(=O)N[C@H]3CCC[C@@H](Nc4nc(-c5c[nH]c6ncc(F)cc56)ncc4F)C3)c2)cc1 (some centres unmarked) [Compound A145] | > 100
45 | CCOc1ccccc1OCCCC1CCCN(C(=O)N[C@H]2CCC[C@@H](Nc3nc(-c4c[nH]c5ncc(F)cc45)ncc3F)C2)C1 (some centres unmarked) [Compound A8] | > 100
46 | CCOCCCc1ccnc(C(=O)N[C@@H]2CCC[C@H](Nc3nc(-c4c[nH]c5ncc(F)cc45)ncc3F)C2)c1 [Compound A38] | 25 to 50
47 | O=C(O)CCOCCOCCOCCNC(=O)N[C@H]1CCC[C@@H](Nc2nc(-c3c[nH]c4ncc(F)cc34)ncc2F)C1 [Compound A172] | 5 to 25
48 | CCCOCCCCCc1ccnc(C(=O)N[C@@H]2CCC[C@H](Nc3nc(-c4c[nH]c5ncc(F)cc45)ncc3F)C2)c1 [Compound A28] | > 100
49 | CCOCCOCCCCCN(C)C(=O)N1CCC(C(=O)Nc2nc(-c3c[nH]c4ncc(F)cc34)ncc2F)C1 (centres unmarked) [Compound C9] | > 100
50 | CCOCCOCCCC1CCN(C(=O)N[C@H]2CCC[C@@H](Nc3nc(-c4c[nH]c5ncc(F)cc45)ncc3F)C2)C1 (some centres unmarked) [Compound A11] | 5 to 25
51 | O=C(NCc1cccc(C(=O)O)c1)OCc1ccnc(C(=O)N[C@@H]2CCC[C@H](Nc3nc(-c4c[nH]c5ncc(F)cc45)ncc3F)C2)c1 [Compound A98] | < 5
52 | O=C(O)CCN1CCC[C@H](Nc2nc(-c3c[nH]c4ncc(F)cc34)ncc2F)C1 [Compound C13] | 5 to 25
53 | CCOC(=O)CN1CCC[C@H](Nc2nc(-c3c[nH]c4ncc(F)cc34)ncc2F)C1 [Compound C11] | 25 to 50
54 | CCOCCOCCCCCN(CC)C(=O)N[C@H]1CCC[C@@H](Nc2nc(-c3c[nH]c4ncc(F)cc34)ncc2F)C1 [Compound A228] | 50 to 100
55 | CCOc1ccc(CNC(=O)OCc2cc(C(=O)N[C@H]3CCC[C@@H](Nc4nc(-c5c[nH]c6ncc(F)cc56)ncc4F)C3)ncc2F)cc1 [Compound A147] | > 100
56 | CCOCCc1ccnc(C(=O)N[C@H]2CCC[C@@H](Nc3nc(-c4c[nH]c5ncc(F)cc45)ncc3F)C2)c1 [Compound A44] | 25 to 50
57 | O=C(N[C@H]1CCC[C@@H](Nc2nc(-c3c[nH]c4ncc(F)cc34)ncc2F)C1)c1cc(CC(O)CO)ccn1 (some centres unmarked) [Compound A50] | < 5
58 | CCOCCOCCOCCNC(=O)N[C@@H]1CCC[C@H](Nc2nc(-c3c[nH]c4ncc(F)cc34)ncc2F)C1 [Compound A168] | 5 to 25
59 | CN(CCCCCOCCOCc1ccccn1)C(=O)N[C@@H]1CCC[C@H](Nc2nc(-c3c[nH]c4ncc(F)cc34)ncc2F)C1 [Compound A222] | 50 to 100
60 | COc1ccc(CNC(=O)OCc2ccnc(C(=O)N[C@H]3CCC[C@@H](Nc4nc(-c5c[nH]c6ncc(F)cc56)ncc4F)C3)c2)cc1OC [Compound A126] | > 100
61 | CN1CCC(CNC(=O)OCc2ccnc(C(=O)N[C@H]3CCC[C@@H](Nc4nc(-c5c[nH]c6ncc(F)cc56)ncc4F)C3)c2)CC1 [Compound A117] | 5 to 25
62 | Cc1ccccc1CNC(=O)OCc1ccnc(C(=O)N[C@H]2CCC[C@@H](Nc3nc(-c4c[nH]c5ncc(F)cc45)ncc3F)C2)c1 [Compound A123] | > 100
